Reference: ChEMBL document CHEMBL1201862, “PubChem BioAssay data set” (2004)
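Dose response: 5 concentrations. Exposure: 48 h. Format: 96-well plates. Endpoint: linear interpolation; highest concentration if not reached. Abbreviation: GI50, concentration required for 50% inhibition of growth.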 Activity calls are given as the source filed them. No stated cut-off is given here; in the data, active = GI50 up to about 1.1 µM and inactive = higher.

Assays:
Experiment in all cases: NCI tumour cell line growth inhibition, 48 h
ACHN = test system: ACHN
BT-549 = test system: BT-549
CCRF-CEM = test system: CCRF-CEM
EKVX = test system: EKVX
HT-29 = test system: HT-29
MCF7 = test system: MCF7
MDA-MB-231 = test system: MDA-MB-231
MDA-MB-435 = test system: MDA-MB-435
Malme-3M = test system: Malme-3M
NCI-H226 = test system: NCI-H226
OVCAR-5 = test system: OVCAR-5
OVCAR-8 = test system: OVCAR-8
SF-295 = test system: SF-295
SK-OV-3 = test system: SK-OV-3
Hs-578T = test system: Hs-578T
IGROV-1 = test system: IGROV-1
LOX IMVI = test system: LOX IMVI
SR = test system: SR
TK-10 = test system: TK-10

| SMILES | GI50 (ACHN) | GI50 (BT-549) | GI50 (CCRF-CEM) | GI50 (EKVX) | GI50 (HT-29) | GI50 (MCF7) | GI50 (MDA-MB-231) | GI50 (MDA-MB-435) | GI50 (Malme-3M) | GI50 (NCI-H226) | GI50 (OVCAR-5) | GI50 (OVCAR-8) | GI50 (SF-295) | GI50 (SK-OV-3) | GI50 (Hs-578T) | GI50 (IGROV-1) | GI50 (LOX IMVI) | GI50 (SR) | GI50 (TK-10) |
| --- | --- | --- | --- | --- | --- | --- | --- | --- | --- | --- | --- | --- | --- | --- | --- | --- | --- | --- | --- |
| CC(C)(C)OC/C=C(\Br)CO | > 100 µM (inactive) | > 100 µM (inactive) | > 100 µM (inactive) | > 100 µM (inactive) | > 100 µM (inactive) | > 100 µM (inactive) | > 100 µM (inactive) | > 100 µM (inactive) | > 100 µM (inactive) | > 100 µM (inactive) | > 100 µM (inactive) | > 100 µM (inactive) | > 100 µM (inactive) | > 100 µM (inactive) | – | – | – | – | – |
| NC(=O)N/N=C1/c2ccccc2-n2nccc21 | 43.5 µM (inactive) | – | 37.6 µM (inactive) | > 100 µM (inactive) | 76.4 µM (inactive) | 21.5 µM (inactive) | > 100 µM (inactive) | 57.4 µM (inactive) | > 100 µM (inactive) | 45.5 µM (inactive) | > 100 µM (inactive) | > 100 µM (inactive) | > 100 µM (inactive) | > 100 µM (inactive) | 85.5 µM (inactive) | 39.9 µM (inactive) | 51.3 µM (inactive) | 39 µM (inactive) | > 100 µM (inactive) |
| COc1ccccc1C1CC(=O)CC(c2ccccc2OC)C12C(=O)NC(=S)NC2=O (stereo not given) | 28.2 µM (inactive) | > 100 µM (inactive) | 46.6 µM (inactive) | > 100 µM (inactive) | 73.8 µM (inactive) | 46.8 µM (inactive) | 38.4 µM (inactive) | 25.4 µM (inactive) | 79.6 µM (inactive) | > 100 µM (inactive) | > 100 µM (inactive) | > 100 µM (inactive) | > 100 µM (inactive) | – | – | 68.9 µM (inactive) | 33.1 µM (inactive) | 53.7 µM (inactive) | > 100 µM (inactive) |
| CCOc1ccccc1NC(=O)CCc1n[nH]c(=S)o1 | > 100 µM (inactive) | – | > 100 µM (inactive) | > 100 µM (inactive) | > 100 µM (inactive) | – | – | – | > 100 µM (inactive) | > 100 µM (inactive) | – | – | > 100 µM (inactive) | > 100 µM (inactive) | – | > 10 µM (inactive) | > 100 µM (inactive) | > 100 µM (inactive) | > 100 µM (inactive) |
| CC1(C)C=[N+]([O-])C(C)(C)N1 | > 100 µM (inactive) | – | > 100 µM (inactive) | > 100 µM (inactive) | > 100 µM (inactive) | > 100 µM (inactive) | > 100 µM (inactive) | > 100 µM (inactive) | > 100 µM (inactive) | > 100 µM (inactive) | > 100 µM (inactive) | > 100 µM (inactive) | > 100 µM (inactive) | > 100 µM (inactive) | > 100 µM (inactive) | > 100 µM (inactive) | > 100 µM (inactive) | > 100 µM (inactive) | > 100 µM (inactive) |
| CC1=Nn2c(nnc2-c2ccccc2Cl)NC(C)(C)C1 | > 100 µM (inactive) | – | 34.2 µM (inactive) | > 100 µM (inactive) | > 100 µM (inactive) | – | – | – | – | > 100 µM (inactive) | > 100 µM (inactive) | > 100 µM (inactive) | > 100 µM (inactive) | > 100 µM (inactive) | – | > 100 µM (inactive) | > 100 µM (inactive) | 25.5 µM (inactive) | > 100 µM (inactive) |
| CCN(CC)C(=O)C1=C(C)NC(C)=C(C(=O)N(CC)CC)C1 | > 100 µM (inactive) | – | > 100 µM (inactive) | > 100 µM (inactive) | – | > 100 µM (inactive) | 39.4 µM (inactive) | 81.1 µM (inactive) | > 100 µM (inactive) | – | > 100 µM (inactive) | – | > 100 µM (inactive) | > 100 µM (inactive) | 44.7 µM (inactive) | > 100 µM (inactive) | > 100 µM (inactive) | > 100 µM (inactive) | > 100 µM (inactive) |
| COc1ccccc1-n1cnc2c1=NC(C)(C)NC=2C(N)=O | > 100 µM (inactive) | – | > 100 µM (inactive) | > 100 µM (inactive) | > 100 µM (inactive) | > 100 µM (inactive) | > 100 µM (inactive) | > 100 µM (inactive) | > 100 µM (inactive) | > 100 µM (inactive) | > 100 µM (inactive) | > 100 µM (inactive) | > 100 µM (inactive) | > 100 µM (inactive) | > 100 µM (inactive) | > 100 µM (inactive) | > 100 µM (inactive) | > 100 µM (inactive) | > 100 µM (inactive) |
| CCCCCC(/C=C/C1CCC(=O)C1)OCOCCOC (stereo not given) | 22.3 µM (inactive) | 27.9 µM (inactive) | 35.3 µM (inactive) | 54.1 µM (inactive) | 23.4 µM (inactive) | 33.5 µM (inactive) | 69.8 µM (inactive) | 33.2 µM (inactive) | > 78.9 µM (inactive) | 29.1 µM (inactive) | > 100 µM (inactive) | 33.9 µM (inactive) | > 58.7 µM (inactive) | > 100 µM (inactive) | – | 42.2 µM (inactive) | 24.3 µM (inactive) | > 46.3 µM (inactive) | 37.2 µM (inactive) |
| COc1cc2c(cc1OC)C1=Cc3cc(OC)c(OC)cc3C(C)N1C=C2 (stereo not given) | > 100 µM (inactive) | 34.6 µM (inactive) | 27.3 µM (inactive) | > 100 µM (inactive) | 74.3 µM (inactive) | 21 µM (inactive) | – | 41.8 µM (inactive) | > 100 µM (inactive) | > 100 µM (inactive) | > 100 µM (inactive) | 52 µM (inactive) | > 100 µM (inactive) | > 100 µM (inactive) | 74 µM (inactive) | > 100 µM (inactive) | – | – | 83.4 µM (inactive) |
| C/C(=N\NC(=O)c1ccccc1O)C1=CNc2ccccc2S1 | 4.56 µM (inactive) | – | 3.35 µM (inactive) | 15.3 µM (inactive) | 7.85 µM (inactive) | – | – | – | 3.1 µM (inactive) | 4.35 µM (inactive) | 3.18 µM (inactive) | 3.7 µM (inactive) | 4.01 µM (inactive) | 15.6 µM (inactive) | – | 5.92 µM (inactive) | 3.3 µM (inactive) | 3.82 µM (inactive) | 5.57 µM (inactive) |
| CC(=O)Oc1cc2c(cc1OC(C)=O)[C@H]1CC[C@]3(C)[C@@H](OC(C)=O)CC[C@H]3[C@@H]1CC2 | 3.56 µM (inactive) | 1.99 µM (inactive) | – | 2.56 µM (inactive) | 5.14 µM (inactive) | 6.37 µM (inactive) | 7.41 µM (inactive) | – | – | – | 10.1 µM (inactive) | 6.7 µM (inactive) | 4.49 µM (inactive) | 6.38 µM (inactive) | 1.87 µM (inactive) | 3.77 µM (inactive) | 2.92 µM (inactive) | 0.45 µM (active) | 8.28 µM (inactive) |
| Clc1ccc(NCNC2Nc3ccccc3N2)cc1Cl | 26.6 µM (inactive) | – | 25 µM (inactive) | 63.7 µM (inactive) | 13.7 µM (inactive) | 0.247 µM (active) | 16.7 µM (inactive) | 20.6 µM (inactive) | 92.9 µM (inactive) | 27.5 µM (inactive) | > 100 µM (inactive) | 13.1 µM (inactive) | 20.4 µM (inactive) | 48.8 µM (inactive) | > 100 µM (inactive) | – | 4.63 µM (inactive) | 37.1 µM (inactive) | 55.6 µM (inactive) |
